Measurements reported in patent US20090202660A1, “Agents and Methods for Osteogenic Oxysterols Inhibition of Oxidative Stress on Osteogenic Cellular Differentiation” (The Regents of the University of California, priority 2005, published 2009).

Experiments:
[1] = tested on: osteocalcin mRNA; assay: Northern blotting for osteocalcin mRNA in M2 cells; assay type: cell-based, mouse; conditions: for osteocalcin gene expression: M2 cells in osteogenic medium, up to 14 days; for osteocalcin expression, synergy with osteogenic oxysterols: BMP 50 ng/ml with 22S+20S (SS, 2.5 μM), eight days
Description: RNA isolation and Northern blot analysis—Following treatment of cells under appropriate experimental conditions, total RNA was isolated using the RNA isolation kit from Stratagene (La Jolla, Calif., U.S.A.). Total RNA ([…]) was run on a 1% agarose/formaldehyde gel and transferred to Duralon-UV membranes (Strategene, Calif., U.S.A.) and cross-linked with UV light. The membranes were hybridized overnight at 60 degree C. with ^32P-labeled mouse osteocalcin cDNA probe, mouse lipoprotein lipase (LPL), mouse adipocyte protein 2 (aP2) PCR-generated probes, human 28S or 18S rRNA probes obtained from Geneka Biotechnology (Montreal, Quebec, Canada) and Maxim Biotech (San Francisco, Calif., U.S.A.), respectively. The PCR products were generated using primer sets synthesized by Invitrogen (Carlsbad, Calif., U.S.A.) with the following specifications: mouse aP2 gene (accession no. M13261); sense (75-95) 5′-[…]-3′, antisense (362-383) 5′-[…]-3′, generating a PCR product of 309 base pairs. Mouse LPL (accession no. XM—134193); sense (1038-1058) 5′-[…]-3′, antisense (1816-1836) 5′-[…]-3′, generating a PCR product of 799 base pairs. […] Following hybridization, the blots were washed twice at room temperature with 2×SSC+0.1% SDS, and then twice at 60 degree C. with 0.5×SSC+0.1% SDS, and exposed to X-ray film. The extent of gene induction was determined by densitometry.
After 4 and 8 days, total RNA from duplicate samples was isolated and analyzed for osteocalcin (Osc) and 28S rRNA expression by Northern blotting as described. FIG. 3E is a radiogram of Northern blotting for osteocalcin mRNA in M2 cells exposed to a control or combination of oxysterols for 4 or 8 days. FIG. 3F is a bar graph depicting the relative demsometric units of osteocalcin mRNA in M2 cells exposed to a control or combination of oxysterols for 4 or 8 days. Data from densitometric analysis of the Northern blot is shown in (F) as the average of duplicate samples, normalized to 28S rRNA.
RNA Isolation and Northern Blot Analysis—Total RNA was isolated using the RNA isolation kit from Stratagene (La Jolla, Calif., USA). Northern blotting and analysis of osteocalcin mRNA and 18S rRNA expression was performed as previously described (23).

[2] = tested on: M2-10B4 marrow stromal cells; assay: Colorimetric alkaline phosphatase (ALP) activity assay on whole cell extracts; conditions: for alkaline phosphatase activity (induction): M2 cells in osteogenic medium, oxysterols 0.5-10 μM, 3-4 days; for alkaline phosphatase activity: ligands used at 10 μM, control 18±2, ±SD; for Enzyme Activity (units/mg total cellular protein) ± SD: alkaline phosphatase, oxysterols 5 μM, 4 days, untreated 6 ± 3; for inhibition of oxysterol-induced alkaline phosphatase activity: M2 cells pretreated with inhibitor, then 22R+20S oxysterols, 3 days; for alkaline phosphatase activity, synergy with oxysterols: marrow stromal cells, BMP with oxysterols
Description: Alkaline phosphatase activity assay: Colorimetric alkaline phosphatase (ALP) activity assay on whole cell extracts was performed as previously described.
Test 1: M2 cells at confluence were treated with control vehicle (C), or 10 µM oxysterols, in an osteogenic medium consisting of RPMI 1640 to which 10% fetal bovine serum (FBS), 50 µg/ml ascorbate and 3 mM beta-glycerophosphate (□GP) were added. After 3 days of incubation, alkaline phosphatase (ALP) activity was determined in cell homogenates by a colorimetric assay.
M2 cells at confluence were treated in osteogenic medium with control vehicle (C) or a combination of 22R and 20S oxysterols, at the indicated concentrations. ALP activity was measured after 3 days as described above.
Test 2: M2 cells were grown in RPMI medium containing 10% fetal bovine serum (FBS). At confluence, the cells were treated in RPMI containing 5% FBS plus ascorbate at 50 μg/ml and β-glycerophosphate at 3 mM to induce osteoblastic differentiation. Adipogenic differentiation was induced by treating the cells in growth medium plus 10˜M troglitazone. A vehicle (C) or oxysterol treatment was applied to cells in a variety of doses (in μM): 20S-Hydroxycholesterol, 25-Hydroxycholesterol, 22R-Hydroxycholesterol; 22S-Hydroxycholesterol; 7-ketocholesterol. Cells were always treated at 90% confluence. After 4 days, alkaline phosphatase activity was determined in whole cell lysates and normalized to protein. Alternatively, MSC cultures were prepared and treated with oxysterols as described above. Cells were treated at 90% confluence with the combination of 22R-Hydroxycholesterol and 20S-Hydroxycholesterol, each at 5 μM, for 4 to 96 hours. The oxysterols where removed and fresh media without oxysterols was added for a total duration of 96 hours. Alkaline phosphatase activity was measured in whole cell extracts and normalized to protein.
Cells were treated with the oxysterols (5 μM) for 4 days after which they were collected and analyzed by colorimetric assay for alkaline phosphatase activity. Results from a representative experiment are shown as the average of quadruplicate determination ±SD.

[3] = tested on: M2 cells; assay: Troglitazone-induced adipogenesis, oil Red O staining and adipocyte count; assay type: cell-based, mouse; conditions: troglitazone 10 μM, oxysterols 10 μM, 8-10 days
Description: (§1) Von Kossa and oil red O staining—Matrix mineralization in cell monolayers was detected by silver nitrate staining as previously described. Oil red O staining for detection of adipocytes was performed as previously described.
Test 1: M2 cells at 90% confluence were treated with vehicle (C), PPAR-γ activator, troglitazone 10 uM (Tro), alone or in combination with 10 μM oxysterols 20S-, 22R-, or 25S-hydroxycholesterol. After 8 days, adipocytes were identified by oil Red 0 staining and quantified by counting under a phase contrast microscope. FIG. 6A is a bar graph depicting the effect of oxysterols on reducing adipogenesis of MSC.
Test 2: (A) M2 cells at confluence were treated in RPMI containing 10% FBS with control vehicle or 10 μM troglitazone (Tro) in the absence or presence of 10 μM 20S or 22S oxysterols. After 10 days, adipocytes were visualized by oil Red O staining and quantified by light microscopy, shown in (B). […] (C) M2 cells were treated at confluence with 10 μM Tro, alone or in combination with 10 μM 20S oxysterol. After 10 days, total RNA was isolated and analyzed for lipoprotein lipase (LPL), adipocyte P2 gene (aP2) or 18S rRNA expression by Northern blotting as described (Ref). Data from densitometric analysis of the Northern blot is shown in (D) as the average of duplicate samples, normalized to 18S rRNA.

[4] = tested on: marrow stromal cells; assay: Markers of osteogenic differentiation in marrow stromal cells (ALP, osteocalcin mRNA, mineral formation); assay type: cell-based, mouse; conditions: for osteogenic property (markers of osteoblastic differentiation): alone or in combination with originally described oxysterols
Description: Next, a combination of 22R and 20S oxysterols (RS, 2.5 μM each) were added in the presence or absence of SC as indicated. After 3 days, ALP activity was measured as described earlier. […] (B) M2 cells were treated as described in (A) and after 10 days matrix mineralization in cultures was quantified by a ^45Ca incorporation assay as described earlier. […] (C) M2 cells were pretreated with 20 μM SC for 4 hours, followed by the addition of RS in the presence or absence of SC as described above. After 8 days, total RNA was isolated and analyzed for osteocalcin (Osc) and […] expression by Northern blotting as previously described. Data from densitometric analysis of the Northern blot is shown in (D) as the average of duplicate samples, normalized to 18S rRNA. (E) M2 cells at confluence were pretreated for 2 hours with control vehicle (C), or PLA2 inhibitors ACA (25 μM) and AACOCF3 (AAC, 20 μM), in osteogenic medium. Next, a combination of 22R and 20S oxysterols (RS, 2.5 μM) was added in the presence or absence of the inhibitors as indicated. After 3 days, ALP activity was measured as previously described. […] (F) M2 cells were treated as described in (E). After 10 days, matrix mineralization in cultures was quantified using a ^45Ca incorporation assay as previously described. Results from a representative of three experiments are shown, reported as the mean of quadruplicate determinations±SD, normalized to protein concentration (p<0.01 for RS vs. RS+ACA and RS+AAC).
The purpose of the study was to identify other osteogenic and anti-adipogenic oxysterols based on the chemical structure of previously identified oxysterols. We tested the ability of such candidate oxysterol molecules to induce the formation of osteoblastic cells in cultures of marrow stromal cells, which are progenitors of osteoblastic cells that make bone. In order to assess osteogenic differentiation of cells, one or more markers of osteogenic differentiation were measured in untreated cells and cells treated with the test oxysterols. These markers included: alkaline phosphatase activity, osteocalcin mRNA expression and mineral formation in cultures of marrow stromal cells. Activation of either one or more than one marker by a single or combination oxysterols is indicative of their osteogenic property.

[5] = tested on: M2-10B4 marrow stromal cells; assay: Matrix mineralization (45Ca incorporation assay, von Kossa staining); assay type: cell-based, mouse; conditions: for mineralization: M2 cells in osteogenic medium, 10-14 days; for inhibition of oxysterol-induced mineralization: M2 cells pretreated with inhibitor, then 22R+20S oxysterols, 10 days; for mineralization, synergy with oxysterols: marrow stromal cells, BMP with oxysterols
Description: as §1
^45Ca incorporation assay—Matrix mineralization in cell monolayers was quantified using the ^45Ca incorporation assay as previously described.
After 14 days, mineralization was identified by a von Kossa staining, which appears black. FIG. 3C is a depiction of von Kossa staining of M2 cells exposed to various conditions. […]

Molecule: CC(C)CCC[C@@H](C)[C@H]1CC[C@H]2[C@@H]3CC=C4[C@@H](O)[C@@H](O)CC[C@]4(C)[C@H]3CC[C@]12C [4beta-hydroxycholesterol]
- osteocalcin mRNA ([1]; M2-10B4 cells treated for eight days, FIG. 20): moderate increase

Molecule: CC(C)CCC[C@@H](C)[C@H]1CC[C@H]2[C@@H]3C(=O)C=C4C[C@@H](O)CC[C@]4(C)[C@H]3CC[C@]12C [7-ketocholesterol, reference compound]
- alkaline phosphatase activity (induction) [2]: did not induce alkaline phosphatase activity
- inhibition of adipogenesis [3]: unable to inhibit adipogenesis

Molecule: CC(C)CCC[C@@H](C)[C@H]1CC[C@H]2[C@@H]3[C@H](O)C=C4C[C@@H](O)CC[C@]4(C)[C@H]3CC[C@]12C [7alpha-hydroxycholesterol, reference compound]
- osteogenic property (markers of osteoblastic differentiation) [4]: did not appear to affect any measures of osteoblastic differentiation

Molecule: CC(C)CC[C@@H](O)[C@@H](C)[C@H]1CC[C@H]2[C@@H]3CC=C4C[C@@H](O)CC[C@]4(C)[C@H]3CC[C@]12C [22R-hydroxycholesterol]
- osteocalcin gene expression [1]: unable to induce
- mineralization [5]: unable to induce
- alkaline phosphatase activity (induction) [2]: induced alkaline phosphatase activity
- alkaline phosphatase activity ([2]; M2 cells): 45±5 activity units/mg protein
- inhibition of adipogenesis [3]: inhibited adipogenesis

Molecule: CC(C)CC[C@H](O)[C@@H](C)[C@H]1CC[C@H]2[C@@H]3CC=C4C[C@@H](O)CC[C@]4(C)[C@H]3CC[C@]12C [22S-hydroxycholesterol]
- osteocalcin gene expression [1]: unable to induce
- mineralization [5]: unable to induce
- alkaline phosphatase activity (induction) [2]: induced alkaline phosphatase activity
- inhibition of adipogenesis [3]: inhibited adipogenesis

Molecule: CC(C)C(O)CC[C@@H](C)[C@H]1CC[C@H]2[C@@H]3CC=C4C[C@@H](O)CC[C@]4(C)[C@H]3CC[C@]12C (stereo partly shown) [24-hydroxycholesterol]
- Enzyme Activity (units/mg total cellular protein) ± SD [2]: 250 ± 20 units/mg total cellular protein
- osteogenic property (markers of osteoblastic differentiation) [4]: osteoinductive

Molecule: C[C@H](CC[C@@H]1OC1(C)C)[C@H]1CC[C@H]2[C@@H]3CC=C4C[C@@H](O)CC[C@]4(C)[C@H]3CC[C@]12C [24S,25-epoxycholesterol]
- Enzyme Activity (units/mg total cellular protein) ± SD [2]: 1,588 ± 19 units/mg total cellular protein
- osteogenic property (markers of osteoblastic differentiation) [4]: osteoinductive

Molecule: C[C@@H](CO)CCC[C@@H](C)[C@H]1CC[C@H]2[C@@H]3CC=C4C[C@@H](O)CC[C@]4(C)[C@H]3CC[C@]12C [26-hydroxycholesterol]
- Enzyme Activity (units/mg total cellular protein) ± SD [2]: 655 ± 93 units/mg total cellular protein
- osteogenic property (markers of osteoblastic differentiation) [4]: osteoinductive

Molecule: CCCCC/C=C\C/C=C\C/C=C\C/C=C\CCCC(=O)C(F)(F)F [AACOCF3, reference compound]
- inhibition of oxysterol-induced mineralization [5]: inhibited
- inhibition of oxysterol-induced alkaline phosphatase activity [2]: inhibited

Molecule: CCCCCc1ccc(/C=C/C(=O)Nc2ccccc2C(=O)O)cc1 [ACA, reference compound]
- inhibition of oxysterol-induced mineralization [5]: inhibited
- inhibition of oxysterol-induced alkaline phosphatase activity [2]: inhibited

Molecule: CS(=O)(=O)Nc1ccc([N+](=O)[O-])cc1OC1CCCCC1 [NS-398, reference compound]
- highest non-toxic dose ([4]; M2 cells): 20 µM
- inhibition of the osteogenic effects of oxysterol combinations ([4]; SC-560 at 1-20 μM, NS-398 at 20 μM): negligible inhibitory effects

Molecule: COc1cccc(-c2cc(=O)c3ccccc3o2)c1N [PD98059, reference compound]
- inhibition of oxysterol-induced osteocalcin gene expression ([1]; M2 cells pretreated with inhibitor, then 22R+20S oxysterols, 8 days): not
- inhibition of oxysterol-induced mineralization [5]: inhibited

Molecule: O=S(=O)(c1ccccc1)N(CC(F)(F)F)c1ccc(C(O)(C(F)(F)F)C(F)(F)F)cc1 [TO, TO-901317, reference compound]
- osteocalcin gene expression [1]: did not induce
- mineralization [5]: did not induce
- inhibition of alkaline phosphatase activity ([2]; M2 cells, TO at 1-10 μM): dose-dependent inhibition
- alkaline phosphatase activity ([2]; M2 cells): 3±0.5 activity units/mg protein

Molecule: BMP14: bone morphogenic protein 14
- osteocalcin expression, synergy with osteogenic oxysterols [1]: synergistic induction
- mineralization, synergy with oxysterols [5]: synergistically induced
- alkaline phosphatase activity, synergy with oxysterols [2]: synergistically induced

B1: BMP7: bone morphogenic protein 7 (protein, UniProt P18075 293-431, looked up)
Bone morphogenetic protein 7: STGSKQRSQNRSKTPKNQEALRMANVAENSSSDQRQACKKHELYVSFRDLGWQDWIIAPEGYAAYYCEGECAFPLNSYMNATNHAIVQTLVHFINPETVPKPCCAPTQLNAISVLYFDDSSNVILKKYRNMVVRACGCH
- osteocalcin expression, synergy with osteogenic oxysterols [1]: synergistic induction
- mineralization, synergy with oxysterols [5]: synergistically induced
- alkaline phosphatase activity, synergy with oxysterols [2]: synergistically induced
